Laboratory results reported in PMC8911025, “Design, Synthesis, and Biological Evaluation of New Azulene-Containing Chalcones” (Materials, 2022).
In brackets after ≈: the same amount, converted by molar mass.

What was measured:
Format in all cases: cell-based
[1] = test system: Escherichia coli ATCC 25922; test: MIC, binary serial dilution in 96-well plates; details: ATCC25922; Escherichia coli ATCC 25922, 24 h at 37 °C
Protocol: (§1) The antimicrobial activity of all compounds was assessed on Gram-positive bacteria (Staphylococcus aureus ATCC 25923), Gram-negative bacteria (Escherichia coli ATCC 25922, Pseudomonas aeruginosa ATCC 27853), and fungi (Candida parapsilosis ATCC 22019) using quantitative binary serial dilution method in 96-well plates. The negative control was represented by wells with culture medium, while positive control was the microbial strain in broth. Briefly, binary serial dilutions of the compounds performed in 100 μL of broth were seeded with microbial inoculum of 10^6 colony forming units (CFU)/mL and incubated for 24 h at 37 °C. […] Due to the fact that the obtained compounds were colored, after the incubation of the 96-well plates, from each well, 10 µL were seeded on agar plates (Plate Count Agar) to determine the inhibitory concentration. The same value of the inhibitory concentration was obtained in repeated experiments.
(§2) The antibacterial effect of the azulene moiety introduced in the chalcone structure was investigated against Gram-positive (Staphylococcus aureus ATCC 25923) and Gram-negative (Escherichia coli ATCC 25922, Pseudomonas aeruginosa ATCC 27853) bacteria, while the antifungal effect was tested against Candida parapsilosis ATCC 22019. To our knowledge, the antibacterial activity of azulene-containing chalcone compounds has not been reported previously; moreover, this is the first investigation of the biological properties of azulene-containing chalcones in general. The results expressed in terms of minimum inhibitory concentration (MIC) were determined by in vitro screening of the antimicrobial properties using the broth microdilution method and are summarized in Table 5.

[2] = test system: Pseudomonas aeruginosa ATCC 27853; test: MIC, binary serial dilution in 96-well plates; details: ATCC27853; Pseudomonas aeruginosa ATCC 27853, 24 h at 37 °C
Protocol: as §1, §2

[3] = test system: Staphylococcus aureus ATCC 25923; test: MIC, binary serial dilution in 96-well plates; details: for MIC: ATCC25923, Staphylococcus aureus ATCC 25923, 24 h at 37 °C; for Aexp: Aexp = 0.1 + log (k/MIC), k = 1.250, compounds synthesized herein
Protocol: as §1, §2

[4] = test system: Candida parapsilosis ATCC 22019; test: MIC (antifungal), binary serial dilution in 96-well plates; details: Lodderomyces parapsilosis, ATCC22019; Candida parapsilosis ATCC 22019, 24 h at 37 °C
Protocol: as §1, §2
We further tested the azulene-containing chalcone compounds for antifungal activity against Candida parapsilosis ATCC 22019.

Candida parapsilosis = test: Antibiofilm activity (crystal violet, A490); details: Lodderomyces parapsilosis, biofilm, read-out: MBEC
Protocol: (§3) The effect of the chalcones on the biofilm formation was evaluated after the determination of the MICs. Briefly, the plates were emptied, washed to remove the nonadherent cells, fixed with methanol, and stained with crystal violet. The antibiofilm activity was determined after adding 33% acetic acid solution by measuring the absorbance at 490 nm, and the results are listed in Table 6.
(§4) The azulene-chalcone derivatives were tested for their ability to affect biofilm formation since 80% of the world’s microbial biomass is found in the biofilm state. The most efficient compound was again chalcone 6 with MBEC of 0.156–0.625 mg/mL (Table 6).

Escherichia coli = test: Antibiofilm activity (crystal violet, A490); details: biofilm, read-out: MBEC
Protocol: as §3, §4

Pseudomonas aeruginosa = test: Antibiofilm activity (crystal violet, A490); details: biofilm, read-out: MBEC
Protocol: as §3, §4

Staphylococcus aureus = test: Antibiofilm activity (crystal violet, A490); details: biofilm, read-out: MBEC
Protocol: as §3, §4

[5] = Cell viability assay (CellTiter Glo); details: human; HEp-2 cells, 48 h, CellTiter Glo; read-out: IC50 (50% cytotoxic concentration)
Protocol: (§5) To assess the toxicity of the azulene-containing chalcones, the adherent cell line HEp-2 (American Cell Type Collection [ATCC] CCL-23^TM) was used.
(§6) In order to estimate the cytotoxicity of the compounds, HEp-2 cells (American Cell Type Collection (ATCC) CCL-23) were exposed to the azulene-containing chalcones at concentrations of 200, 100, 50, and 25 μg/mL and evaluated using CellTiter Glo kit (Promega, Madison, WI, USA) assay. The results presented in Figure 3 are expressed as viability percentages versus control.

HEp-2 cells [6] = test: Cell cycle analysis (propidium iodide, flow cytometry)
Protocol: For cell cycle analysis, a suspension of 7.5 × 10^4 HEp-2 cells was seeded for 24 h in a 1 cm^2 well in DMEM:F12 containing 10% fetal bovine serum. After recovery, the cells were treated with 50 µg/mL or 100 µg/mL azulene-containing chalcone, and 24 h later, the cells were harvested, fixed in cold ethanol overnight, and stained with RNase A/propidium iodide at a concentration of 1 mg/mL to 100 µg/mL. The events were recorded using the Beckman Coulter flow cytometer and analyzed using FlowJo 7.2.5 software.
The cytotoxicity data were also confirmed by cell cycle analysis. Among the tested compounds, chalcone 10 induced an increase in the G2/M phase starting from a concentration of 50 µg/mL (Supplementary Material Figure S2), the effect increasing slightly with the concentration of the tested compound. The increase in the G2/M phase was also observed in the case of compound 9, but at a higher concentration (100 µg/mL), but this effect was lower (Figure 4).

caspase 3 = test: Gene expression quantification (qPCR); details: HEp-2, 100 µg/mL, 24 h
Protocol: (§7) The mechanism of azulene-containing chalcone toxicity was assessed by gene expression evaluation. HEp-2 cells were seeded in 6-well plates at a concentration of 3 × 10^5 cells/wells in DMEM:F12 supplemented with 10% FBS. The cells were treated with azulene-containing chalcone at a concentration of 100 µg/mL. After 24 h, the cells were harvested and centrifuged, and the pellet was subjected to total RNA extraction using Trizol reagent (Sigma, St. Louis, MO, USA). The cDNA was produced using 2 µg total RNA and High Capacity Reverse Transcription Kit (Thermo Fisher Scientific, Chelmsford, MA, USA). Fifty nanograms of cDNA was subjected to PCR reaction using Maxima SYBR Green/ROX qPCR Master Mix (Thermo Fisher Scientific, Chelmsford, MA, USA) and Origene primer pairs: caspase 3 (CAT#: HP207674) caspase 7 (CAT#: HP233752), caspase 8 (CAT#: HP234494), caspase 9 (CAT#: HP205155), caspase 10 (CAT#: HP228052). For NOX-4 and NOS2, the following primers were used: NOX 4 forward 5′-[…]-3 and reverse 5′-[…]-3′ and NOS2 forward 5′-[…]-3′ and reverse 5′-[…]-3′. Amplification was completed using StepOne Real-Time PCR System (Thermo Fisher Scientific, Chelmsford, MA, USA). The relative changes in the levels of mRNA expression were quantified by using the 2^−ΔΔCT method.
(§8) We observed that the expression of both executioner caspases, caspase 3 (Casp 3), and caspase 7 (Casp 7), was activated by azulene (Figure 5, right). The production of procaspase 3 and 7 mRNA in the case of compounds 9 and 10 was quite reduced, probably correlated with the decreased number of cells.

caspase 7 = test: Gene expression quantification (qPCR); details: HEp-2, 100 µg/mL, 24 h
Protocol: as §7, §8

caspase 8 = test: Gene expression quantification (qPCR); details: HEp-2, 100 µg/mL, 24 h
Protocol: as §7
(§9) Production of procaspase 8 mRNA was inhibited by 7, 9, and 10, with an important role in extrinsic apoptosis induction remaining for caspase 10. Cellular stress induces intrinsic apoptosis by caspase 9 activation that stimulates the caspase cascade, culminating in activation of executioner caspases 3 and 7 [42]. The mRNA expression of caspase 9 was activated following the treatment with 100 µg/mL of compounds 1–8 but inhibited by 9 and 10.

caspase 9 = test: Gene expression quantification (qPCR); details: HEp-2, 100 µg/mL, 24 h
Protocol: as §7, §9

NOS2 = test: Gene expression quantification (qPCR); details: HEp-2, 100 µg/mL, 24 h
Protocol: as §7
(§10) One of our approaches consisted of the analysis of NOS2 and NOX4 gene expression (Figure 6). […]

HEp-2 cells [7] = test: Cell viability assay (CellTiter Glo); details: 25-200 μg/mL
Protocol: as §5, §6

NOX4 = test: Gene expression quantification (qPCR); details: HEp-2, 100 µg/mL, 24 h
Protocol: as §7, §10

biofilm formation = test: Antibiofilm activity, summary over the tested strains; details: range over the tested strains (Table 6)
Protocol: as §3, §4

Row | SMILES | MIC [1] [mg/L] | MIC [2] [mg/L] | MIC [3] [mg/L] | MIC [4] [mg/L] | procaspase 3 mRNA expression (caspase 3) | procaspase 7 mRNA expression (caspase 7) | procaspase 8 mRNA production (caspase 8) | mRNA expression of caspase 9 (caspase 9) | Aexp [3] | minimal effective concentration (Candida parapsilosis) [µg/mL] | minimal effective concentration (Escherichia coli) [µg/mL] | minimal effective concentration (Pseudomonas aeruginosa) [µg/mL] | minimal effective concentration (Staphylococcus aureus) [µg/mL] | IC50 at 48 h [5] [mg/L] | effect on G2/M phase (HEp-2 cells [6]; HEp-2, 100 µg/mL) | NOS2 expression (NOS2) | cytotoxicity (HEp-2 cells [7]) | effect on G2/M phase (HEp-2 cells [6]; HEp-2, starting from 50 µg/mL) | NOX4 activation (expression) (NOX4) | MBEC (biofilm formation) [mg/mL]
1 | O=C(/C=C/c1ccc2cccccc1-2)c1cccc2ccccc12 [Compound 4, (E)-3-(Azulen-1-yl)-1-(naphthalen-1-yl)prop-2-en-1-one] | 625 (≈ 2030 µM) | 625 (≈ 2030 µM) | 1250 (≈ 4050 µM) | 312 (≈ 1010 µM) |  |  |  |  | 0.100 | 625 | 625 | 625 | 1250 | 61.8 (≈ 200 µM) |  |  |  |  |  | 
2 | Cc1cc(/C=C/C(=O)c2ccc3cccccc2-3)c2cccccc1-2 [Compound 9, (E)-1-(Azulen-1-yl)-3-(3-methylazulen-1-yl)prop-2-en-1-one] | 625 (≈ 1940 µM) | 625 (≈ 1940 µM) | 1250 (≈ 3880 µM) | 312 (≈ 968 µM) | quite reduced | quite reduced | inhibited | inhibited | 0.100 | 312 | 625 | 625 | 625 | 52.5 (≈ 163 µM) | increase | reduced |  |  |  | 
3 | Cc1cc(C(=O)/C=C/c2ccc3cccccc2-3)c2cccccc1-2 [Compound 10, (E)-3-(Azulen-1-yl)-1-(3-methylazulen-1-yl)prop-2-en-1-one] | 625 (≈ 1940 µM) | 625 (≈ 1940 µM) | 1250 (≈ 3880 µM) | 312 (≈ 968 µM) | quite reduced | quite reduced | inhibited | inhibited | 0.100 | 312 | 625 | 625 | 1250 | 4.95 (≈ 15.4 µM) |  |  | most toxic | increase |  | 
4 | O=C(/C=C/c1cc(Cl)c2cccccc1-2)c1ccc2cccccc1-2 [Compound 7, (E)-1-(Azulen-1-yl)-3-(3-chloroazulen-1-yl)prop-2-en-1-one] | 625 (≈ 1820 µM) | 625 (≈ 1820 µM) | 625 (≈ 1820 µM) | 312 (≈ 910 µM) |  |  | inhibited |  | 0.401 | 312 | 1250 | 625 | 625 | 42.9 (≈ 125 µM) |  |  |  |  | minimal | 
5 | O=C(/C=C/c1ccc2cccccc1-2)c1ccc2cccccc1-2 [Compound 6, (E)-1,3-Di(azulen-1-yl)prop-2-en-1-one] | 625 (≈ 2030 µM) | 625 (≈ 2030 µM) | 625 (≈ 2030 µM) | 156 (≈ 506 µM) |  |  |  |  | 0.401 | 156 | 625 | 625 | 625 | 78.6 (≈ 255 µM) |  |  | low toxicity |  |  | 0.156 to 0.625

Continued, in another order:

Row | MIC [1] [mg/L] | MIC [2] [mg/L] | MIC [3] [mg/L] | MIC [4] [mg/L] | procaspase 3 mRNA expression (caspase 3) | procaspase 7 mRNA expression (caspase 7) | procaspase 8 mRNA production (caspase 8) | mRNA expression of caspase 9 (caspase 9) | SMILES | Aexp [3] | minimal effective concentration (Candida parapsilosis) [µg/mL] | minimal effective concentration (Escherichia coli) [µg/mL] | minimal effective concentration (Pseudomonas aeruginosa) [µg/mL] | minimal effective concentration (Staphylococcus aureus) [µg/mL] | IC50 at 48 h [5] [mg/L] | effect on G2/M phase (HEp-2 cells [6]; HEp-2, 100 µg/mL) | NOS2 expression (NOS2) | cytotoxicity (HEp-2 cells [7]) | effect on G2/M phase (HEp-2 cells [6]; HEp-2, starting from 50 µg/mL) | NOX4 activation (expression) (NOX4) | MBEC (biofilm formation) [mg/mL]
6 | 625 (≈ 2290 µM) | 625 (≈ 2290 µM) | 1250 (≈ 4570 µM) | 312 (≈ 1140 µM) |  |  |  |  | Nc1ccc(C(=O)/C=C/c2ccc3cccccc2-3)cc1 [Compound 3, (E)-1-(4-Aminophenyl)-3-(azulen-1-yl)prop-2-en-1-one] | 0.100 | 625 | 625 | 1250 | 2500 | 114 (≈ 415 µM) |  |  |  |  |  | 
7 | 625 (≈ 2280 µM) | 625 (≈ 2280 µM) | 1250 (≈ 4560 µM) | 312 (≈ 1140 µM) |  |  |  |  | O=C(/C=C/c1ccc2cccccc1-2)c1ccc(O)cc1 [Compound 2, (E)-3-(Azulen-1-yl)-1-(4-hydroxyphenyl)prop-2-en-1-one] | 0.100 | 312 | 625 | 625 | 1250 | 97.5 (≈ 355 µM) |  |  |  |  |  | 
